Results taken from patent US20230287416A1, “COMBINATORY TREATMENT OF SMA WITH SARNA AND MRNA MODULATORS” (RACTIGEN THERAPEUTICS, priority 2020, published 2023).

Columns and labels:
Format in all cases: cell-based, human
SMN2 mRNA [1] = assay: RT-qPCR of SMN2FL and SMN2 Δ7 mRNA in GM00232 cells; conditions: GM00232, 72 h
SMN2 mRNA [2] = assay: Semi-quantitative RT-PCR (DdeI digestion) of SMN2FL and SMN2 Δ7 in GM03813 cells; conditions: GM03813, 72 h
Protocol: Seventy-two hours later, total cellular RNA was isolated from the treated cells and reverse transcribed into cDNA. SMN2 mRNA expression was assessed with RT-qPCR using primer pairs specific for SMN2FL or SMN2 Δ7. SMN2 mRNA expression was also assessed by semi-quantitative RT-PCR using a primer pair that amplifies both SMN2FL and SMN2 Δ7 followed by DdeI digestion (PCR/digestion). […] After digestion, both bands were reduced by 115 bp, resulting in two products: 392 bp (SMN2FL) and 338 bp (SMN2 Δ7) as shown on the gel of FIG. 3D. FIG. 3A-3D show dose-dependent changes in SMN2FL and SMNΔ7 mRNA as assessed by RT-qPCR and PCR/digestion respectively. FIG. 3E-3G are graphic plots of data from quantitating the intensity of bands in FIG. 3D.
(§1) SMA patient derived fibroblasts were obtained from Coriell Institute (Camden, N.J., USA), including GM00232 (SMA type I with 2 copies of SMN2 gene) and GM03813 (SMA type II with 3 copies of SMN2 gene). These cells were cultured at 5% C02 and 37° C. in modified MEM medium (Gibco, Thermo Fisher Scientific, Carlsbad, Calif.) supplemented with 15% bovine calf serum (Sigma-Aldrich), 1% NEAA (Gibco) and 1% penicillin/streptomycin (Gibco). To transfect oligonucleotides including saRNAs, siRNA and ASO, cells were seeded into 6-well plates at a density of 1×10^5 cells/well and were transfected with oligonucleotides at different concentrations using RNAiMax (Invitrogen, Carlsbad, Calif.) according to the reverse transfection protocol provided by the manufacturer for 72 hours (unless otherwise specified). For Risdiplam treatment of cells, Risdiplam (HY-109101, MedChem Express Company, Monmouth Junction, N.J., USA) dissolved in DMSO was added directly to cells at desired concentration for 72 hours unless specified otherwise.
To amplify both SMN2FL and SMN2 Δ7 in one reaction, cDNA was amplified by semi-quantitative RT-PCR using primers that spans exon 7 of SMN2 (Table 5) (FIG. 2). The PCR reaction conditions were: 94° C. for 2 minutes (1 cycle), 98° C. for 10 seconds, 60° C. for 15 seconds, 72° C. for 32 seconds, cycled for 30 time with a final 5 minutes extension at 72° C. To further differentiate SMN1 mRNA from SMN2, the resultant PCR products of SMN were digested by DdeI restriction enzyme (R0175L, NEB) and then separated by 2% agarose gel. Due to a nucleotide variant on […] of SMN2, a DdeI recognition site exists in PCR products amplified from SMN2 gene but not from SMN1 gene, DdeI digestion releases a 115 bp fragment from both SMN2FL and SMN2 Δ7, resulting […]: 507 (SMN1FL), 338 (SMN2 Δ7), 392 (SMN2FL) and 115 bp (FIG. 2). TBP gene was also amplified as a RNA loading control. The DdeI digestion reaction conditions were: 37° C. for 60 minutes and 65° C. for 20 minutes, 1cycle.

SMN2 mRNA [3] = assay: Semi-quantitative RT-PCR/DdeI digestion of SMN2FL and SMN2 Δ7 in GM00232 cells; conditions: GM00232, 72 h
Protocol: (§2) To determine whether the combination of saRNA (DS06-0004) and ASO-10-27 has an enhanced effect on SMN2FL induction in type I SMA cells, GM00232 cells were transfected with DS06-0004 and ASO-10-27 alone or in combination at different concentrations for 72 hours. SMN2 expression was assessed in the treated cells by RT-qPCR (FIGS. 4A and 4D) and PCR/digestion (FIGS. 4B, 4C and 4E).
as §1, with “For Risdiplam treatment of cells, Risdiplam (HY-109101, MedChem Express Company, Monmouth Junction, N.J., USA) dissolved in DMSO was added directly to cells at desired concentration for 72 hours unless specified otherwise.” left out
To amplify both SMN2FL and SMN2 Δ7 in one reaction, cDNA was amplified by semi-quantitative RT-PCR using primers that spans exon 7 of SMN2 (Table 5) (FIG. 2). […]

SMN2 mRNA [4] = assay: RT-qPCR of SMN2FL and SMN2 Δ7 mRNA in GM00232 cells; conditions: GM00232, 72 h; remark: listed apart in the source
Protocol: as §2
“GM00232 cells” refers to fibroblast cells provided by Coriell Institute for Medical Research. This cell line is described as SPINAL MUSCULAR ATROPHY I; SMA1. The donor subject has 2 copies of the SMN2 gene (data from several sources including Stabley et al. 2015, PMID 26247043) and is homozygous for deletion of exons 7 and 8 of the SMN1 gene. The relevant gene is SMN1; the chromosomal location is 5q12.2-q13.3, the allelic variant is described as exons 7 and 8 deleted; SPINAL MUSCULAR ATROPHY, TYPE I; and the identified mutation: is EX7-8DEL. The phenotype data derived from a fibroblast from skin (arm) of the following subject characterized as: Progressive muscular atrophy; absent deep tendon reflexes; abnormal EMG; donor subject has 2 copies of the SMN2 gene (data from several sources including Stabley et al. 2015, PMID 26247043) and is homozygous for deletion of exons 7 and 8 of the SMN1 gene.
as §1
For RNA isolation from cultured cells, total cellular RNA was isolated from treated cells using an RNeasy Plus Mini kit (Qiagen, Hilden, Germany) according to its manual. To isolated RNA from animal tissues, tissues were harvested and stored at RNA later (AM7021, Thermo Fisher). Total RNA was then isolated using MagPure Total RNA Micro LQ kit (Magen, R6621, China) by auto-pure96 machine (ALLSHENG, China). The resultant RNA (1 μg) was reverse transcribed into cDNA by using a PrimeScript RT kit containing gDNA Eraser (Takara, Shlga, Japan). The resultant cDNA was amplified in an ABI 7500 Fast Real-time PCR System (Applied Biosystems; Foster City, Calif.) using SYBR Premix Ex Taq 11 (Takara, Shlga, Japan) reagents and primers which specifically amplified full-length (SMN2FL) or A7 SMN2 mRNA (SMN2 Δ7) (FIG. 1). The reaction conditions were: 95° C. for 3 seconds (1 cycle) and 60° C. for 30 seconds (40 cycles). Amplification of TBP gene served as an internal control.

[5] = PCR/digestion (Example 1, FIG. 3E)

Compound: Cc1cn2nc(-c3cc(=O)n4cc(N5CCNC6(CC6)C5)ccc4n3)cc(C)c2n1 [Risdiplam]
- SMN2FL mRNA fold change (SMN2 mRNA [1]; 50 nM (Example 6, FIG. 8A-8C)): 1.2 fold
- SMN2 Δ7 mRNA change (SMN2 mRNA [1]; 50 nM, 250 nM and 1250 nM (Example 6)): decrease
- SMN2FL mRNA fold change (SMN2 mRNA [1]; 250 nM (Example 6)): 1.8 fold
- SMN2FL mRNA fold change (SMN2 mRNA [1]; 1250 nM (Example 6)): 1.9 fold
- SMN2FL mRNA fold change (SMN2 mRNA [2]; 1250 nM, PCR/DdeI digestion (Example 8, FIG. 10D-10F)): 2.1 fold
- SMN2FL mRNA fold change (SMN2 mRNA [3]; 1250 nM, PCR/DdeI digestion (Example 6, FIG. 8D-8F)): 2.3 fold

Compound: DS06-0004: saRNA targeting SMN2 promoter at -281; SEQ ID NO: 476/477 (Table 8: SEQ ID NO: 131/288) (chain 1 AGACGAGGCCUAAGCAACATT; chain 2 UGUUGCUUAGGCCUCGUCUTT; chemistry not given here)
- SMN2FL mRNA fold change (SMN2 mRNA [1]; 1 nM (Example 6)): 1.8 fold
- SMN2 Δ7 mRNA fold change (SMN2 mRNA [1]; 1 nM (Example 6)): 1.6 fold
- SMN2FL mRNA fold change (SMN2 mRNA [1]; 5 nM (Example 6)): 2.1 fold
- SMN2 Δ7 mRNA fold change (SMN2 mRNA [1]; 5 nM (Example 6)): 1.6 fold
- SMN2 Δ7 mRNA fold change (SMN2 mRNA [1]; 25 nM (Example 2)): 2.1 fold
- SMN2FL mRNA fold change (SMN2 mRNA [1]; 25 nM (Example 6)): 2.0 fold
- SMN2 Δ7 mRNA fold change (SMN2 mRNA [1]; 25 nM (Example 6)): 1.7 fold
- SMN2 Δ7 mRNA fold change (SMN2 mRNA [4]; 1 nM (Example 2)): 1.5 fold
- SMN2FL mRNA fold change (SMN2 mRNA [4]; 1 nM (Example 2, FIG. 4A)): 1.7 fold
- SMN2FL mRNA fold change (SMN2 mRNA [4]; 5 nM (Example 2)): 2.4 fold
- SMN2 Δ7 mRNA fold change (SMN2 mRNA [4]; 5 nM (Example 2)): 1.9 fold
- SMN2FL mRNA fold change (SMN2 mRNA [4]; 25 nM (Example 2)): 2.4 fold

Compound: Nusinersen [ASO-10-27]
- SMN2FL mRNA fold change (SMN2 mRNA [2]; 25 nM, semi-quantitative RT-PCR/DdeI digestion (Example 4, FIG. 6B-6C)): 2.1 fold
- concentration at which expression of SMN2FL reached its peak (SMN2 mRNA [2]; [5]): 10 nM
- concentration at which expression of SMNΔ7 almost approached the lowest value (SMN2 mRNA [2]; [5]): 5 nM
- SMN2FL mRNA fold change (SMN2 mRNA [2]; alone or in combination at 10 nM, semi-quantitative RT-PCR (Example 10, FIG. 12B-12C)): 1.4 fold
- SMN2FL mRNA fold change (SMN2 mRNA [3]; 25 nM, PCR/DdeI digestion (Example 2, FIG. 4B-4C)): 2.3 fold
- SMN2FL mRNA fold change (SMN2 mRNA [4]; 1 nM (Example 2, FIG. 4A)): 1.3 fold
- SMN2 Δ7 mRNA change (SMN2 mRNA [4]; 1 nM, 5 nM and 25 nM (Example 2)): decrease
- SMN2FL mRNA fold change (SMN2 mRNA [4]; 5 nM (Example 2)): 1.8 fold
- SMN2FL mRNA fold change (SMN2 mRNA [4]; 25 nM (Example 2)): 1.9 fold
